Experiments:
Lolium multiflorum [1] = test: Increase in antioxidant enzyme system in Lolium multiflorum (Italian ryegrass) shoots assessed as increase in ascorbate peroxidase activity compound administered at rate of 14 mf/flat measured 48 hr post treatment; assay type: functional
Lolium multiflorum [2] = test: Effect on antioxidant enzyme system in Lolium multiflorum (Italian ryegrass) shoots assessed as glutathione S-transferase activity per mg protein compound administered at rate of 14 mf/flat measured 48 hr post treatment (reference value: 0.35 nmol/s per mg protein); assay type: functional
Lolium multiflorum [3] = test: Effect on antioxidant enzyme system in Lolium multiflorum (Italian ryegrass) shoots assessed as glutathione S-transferase activity per mg protein compound administered at rate of 14 mf/flat measured 24 hr post treatment (reference value: 0.34 nmol/s per mg protein); assay type: functional
Lolium multiflorum [4] = test: Effect on antioxidant enzyme system in Lolium multiflorum (Italian ryegrass) shoots assessed as dehydroascorbate reductase activity per mg protein compound administered at rate of 14 mf/flat measured 48 hr post treatment (reference value: 3.6 nmol/s per mg protein); assay type: functional
Lolium multiflorum [5] = test: Effect on MDA content in Lolium multiflorum (Italian ryegrass) shoots compound administered at rate of 14 mf/flat measured 24 hr post treatment (reference value: 0.68 uM/L); assay type: functional
Lolium multiflorum [6] = test: Effect on antioxidant enzyme system in Lolium multiflorum (Italian ryegrass) shoots assessed as catalase activity per mg protein compound administered at rate of 14 mf/flat measured 48 hr post treatment (reference value: 0.10 nmol/s per mg protein); assay type: functional
Triticum aestivum [7] = test: Effect on antioxidant enzyme system in Triticum aestivum (wheat) shoots assessed as catalase activity per mg protein compound administered at rate of 14 mf/flat measured 48 hr post treatment (reference value: 0.12 nmol/s per mg protein); assay type: functional
Shoot [8] = test: Drug level in Lolium multiflorum (Italian ryegrass) shoots compound administered at rate of 14 mf/flat measured 96 hr post treatment by HPLC; assay type: ADME
Triticum aestivum [9] = test: Increase in antioxidant enzyme system in Triticum aestivum (wheat) shoots assessed as increase in ascorbate peroxidase activity compound administered at rate of 14 mf/flat measured 48 hr post treatment; assay type: functional
Lolium multiflorum [10] = test: Effect on antioxidant enzyme system in Lolium multiflorum (Italian ryegrass) shoots assessed as glutathione S-transferase activity per mg protein compound administered at rate of 14 mf/flat measured 48 hr post treatment (reference value: 0.37 nmol/s per mg protein); assay type: functional
Lolium multiflorum [11] = test: Increase in MDA content in Lolium multiflorum (Italian ryegrass) shoots compound administered at rate of 14 mf/flat measured 48 hr post treatment; assay type: functional
Lolium multiflorum [12] = test: Increase in antioxidant enzyme system in Lolium multiflorum (Italian ryegrass) shoots assessed as increase in dehydroascorbate reductase activity compound administered at rate of 14 mf/flat measured 24 hr post treatment; assay type: functional
Shoot [13] = test: Drug level in Triticum aestivum (wheat) shoots compound administered at rate of 14 mf/flat measured 96 hr post treatment by HPLC; assay type: ADME
Triticum aestivum [14] = test: Effect on antioxidant enzyme system in Triticum aestivum (wheat) shoots assessed as glutathione S-transferase activity per mg protein compound administered at rate of 14 mf/flat measured 48 hr post treatment (reference value: 2.3 nmol/s per mg protein); assay type: functional
Shoot [15] = test: Drug level in Lolium multiflorum (Italian ryegrass) shoots compound administered at rate of 14 mf/flat measured 48 hr post treatment by HPLC; assay type: ADME
Lolium multiflorum [16] = test: Effect on photosynthetic activity in Lolium multiflorum (Italian ryegrass) shoots assessed as leaf net photosynthesis rate measured by CO2 production compound administered at rate of 14 mf/flat measured 72 hr post treatment (reference value: 4.45 umol/m2/s); assay type: functional
Triticum aestivum [17] = test: Effect on antioxidant enzyme system in Triticum aestivum (wheat) shoots assessed as ascorbate peroxidase activity per mg protein compound administered at rate of 14 mf/flat measured 24 hr post treatment (reference value: 15.7 nmol/s per mg protein); assay type: functional
Triticum aestivum [18] = test: Effect on photosynthetic activity in Triticum aestivum (wheat) shoots assessed as leaf net photosynthesis rate measured by CO2 production compound administered at rate of 14 mf/flat measured 72 hr post treatment (reference value: 1.46 umol/m2/s); assay type: functional
Triticum aestivum [19] = test: Increase in antioxidant enzyme system in Triticum aestivum (wheat) shoots assessed as increase in dehydroascorbate reductase activity compound administered at rate of 14 mf/flat measured 24 hr post treatment; assay type: functional
Lolium multiflorum [20] = test: Effect on MDA content in Lolium multiflorum (Italian ryegrass) shoots compound administered at rate of 14 mf/flat measured 72 hr post treatment (reference value: 0.67 uM/L); assay type: functional
Triticum aestivum [21] = test: Effect on MDA content in Triticum aestivum (wheat) shoots compound administered at rate of 14 mf/flat measured 72 hr post treatment (reference value: 0.050 uM/L); assay type: functional
Triticum aestivum [22] = test: Effect on MDA content in Triticum aestivum (wheat) shoots compound administered at rate of 14 mf/flat measured 24 hr post treatment (reference value: 0.054 uM/L); assay type: functional
Triticum aestivum [23] = test: Effect on antioxidant enzyme system in Triticum aestivum (wheat) shoots assessed as glutathione reductase activity per mg protein compound administered at rate of 14 mf/flat measured 24 hr post treatment (reference value: 1.1 nmol/s per mg protein); assay type: functional
Lolium multiflorum [24] = test: Effect on antioxidant enzyme system in Lolium multiflorum (Italian ryegrass) shoots assessed as glutathione reductase activity per mg protein compound administered at rate of 14 mf/flat measured 72 hr post treatment (reference value: 1.2 nmol/s per mg protein); assay type: functional
Triticum aestivum [25] = test: Effect on antioxidant enzyme system in Triticum aestivum (wheat) shoots assessed as dehydroascorbate reductase activity per mg protein compound administered at rate of 14 mf/flat measured 72 hr post treatment (reference value: 4.7 nmol/s per mg protein); assay type: functional
Lolium multiflorum [26] = test: Effect on photosynthetic activity in Lolium multiflorum (Italian ryegrass) shoots assessed as leaf net photosynthesis rate measured by CO2 production compound administered at rate of 14 mf/flat measured 24 hr post treatment (reference value: 4.55 umol/m2/s); assay type: functional
Triticum aestivum [27] = test: Effect on antioxidant enzyme system in Triticum aestivum (wheat) shoots assessed as catalase activity per mg protein compound administered at rate of 14 mf/flat measured 72 hr post treatment (reference value: 0.13 nmol/s per mg protein); assay type: functional
Lolium multiflorum [28] = test: Effect on photosynthetic activity in Lolium multiflorum (Italian ryegrass) shoots assessed as dark respiration rate measured by CO2 production compound administered at rate of 14 mf/flat measured 48 hr post treatment (reference value: -1.68 umol/m2/s); assay type: functional
Lolium multiflorum [29] = test: Effect on antioxidant enzyme system in Lolium multiflorum (Italian ryegrass) shoots assessed as dehydroascorbate reductase activity per mg protein compound administered at rate of 14 mf/flat measured 24 hr post treatment (reference value: 3.9 nmol/s per mg protein); assay type: functional
Triticum aestivum [30] = test: Increase in antioxidant enzyme system in Triticum aestivum (wheat) shoots assessed as increase in dehydroascorbate reductase activity compound administered at rate of 14 mf/flat measured 72 hr post treatment; assay type: functional
Shoot [31] = test: Drug level in Triticum aestivum (wheat) shoots compound administered at rate of 14 mf/flat measured 24 hr post treatment by HPLC; assay type: ADME
Shoot [32] = test: Drug level in Lolium multiflorum (Italian ryegrass) shoots compound administered at rate of 14 mf/flat measured 144 hr post treatment by HPLC; assay type: ADME

## CCNc1nc(Cl)nc(NC(C)C)n1 [ATRAZINE]
Lolium multiflorum [1]
  Activity: 26%
Lolium multiflorum [2]
  Activity: 0.71 nmol/s/mg protein
Lolium multiflorum [3]
  Activity: 0.46 nmol/s/mg protein
Lolium multiflorum [4]
  Activity: 3.5 nmol/s/mg protein
Lolium multiflorum [5]
  Activity: 0.85 µM
Lolium multiflorum [6]
  Activity: 0.1 nmol/s/mg protein
Triticum aestivum [7]
  Activity: 0.11 nmol/s
Shoot [8]
  Drug uptake: 4.22 ppm
Triticum aestivum [9]
  Activity: 28%
Lolium multiflorum [10]
  Activity: 0.46 nmol/s/mg protein
Lolium multiflorum [11]
  Activity: 31%
Lolium multiflorum [12]
  Activity: 15%
Shoot [13]
  Drug uptake: 1.94 ppm
Triticum aestivum [14]
  Activity: 1.7 nmol/s/mg protein
Shoot [15]
  Drug uptake: 5.9 ppm
Lolium multiflorum [16]
  Activity: -1.35 micromol/m2/s
Triticum aestivum [17]
  Activity: 22 nmol/s/mg protein
Triticum aestivum [18]
  Activity: 0 micromol/m2/s
Triticum aestivum [19]
  Activity: 20%
Lolium multiflorum [20]
  Activity: 0.74 µM
Triticum aestivum [21]
  Activity: 0.057 µM
Triticum aestivum [22]
  Activity: 0.55 µM
Triticum aestivum [23]
  Activity: 1.5 nmol/s/mg protein
Lolium multiflorum [24]
  Activity: 1.2 nmol/s/mg protein
Triticum aestivum [25]
  Activity: 5.7 nmol/s/mg protein
Lolium multiflorum [26]
  Activity: -0.61 micromol/m2/s
Triticum aestivum [27]
  Activity: 0.12 nmol/s
Lolium multiflorum [28]
  Activity: -1.56 micromol/m2/s
Lolium multiflorum [29]
  Activity: 4.5 nmol/s/mg protein
Triticum aestivum [30]
  Activity: 21%
Shoot [31]
  Drug uptake: 1.38 ppm
Shoot [32]
  Drug uptake: 3.11 ppm

## O=[N+]([O-])c1ccc(Oc2ccc(C(F)(F)F)cc2[N+](=O)[O-])cc1 [FLUORODIFEN]
Lolium multiflorum [1]
  Activity: 35%
Lolium multiflorum [2]
  Activity: 1.65 nmol/s/mg protein
Lolium multiflorum [3]
  Activity: 0.67 nmol/s/mg protein
Lolium multiflorum [4]
  Activity: 4.3 nmol/s/mg protein
Lolium multiflorum [5]
  Activity: 0.64 µM
Lolium multiflorum [6]
  Activity: 0.11 nmol/s/mg protein
Triticum aestivum [7]
  Activity: 0.12 nmol/s
Shoot [8]
  Drug uptake: 0.36 ppm
Triticum aestivum [9]
  Activity: 10%
Lolium multiflorum [10]
  Activity: 0.5 nmol/s/mg protein
Lolium multiflorum [11]
  Activity: 14%
Lolium multiflorum [12]
  Activity: 8%
Shoot [13]
  Drug uptake: 0.08 ppm
Triticum aestivum [14]
  Activity: 2.2 nmol/s/mg protein
Shoot [15]
  Drug uptake: 1.17 ppm
Lolium multiflorum [16]
  Activity: 4.05 micromol/m2/s
Triticum aestivum [17]
  Activity: 22.9 nmol/s/mg protein
Triticum aestivum [18]
  Activity: 1.25 micromol/m2/s
Triticum aestivum [19]
  Activity: 9%
Lolium multiflorum [20]
  Activity: 0.74 µM
Triticum aestivum [21]
  Activity: 0.049 µM
Triticum aestivum [22]
  Activity: 0.05 µM
Triticum aestivum [23]
  Activity: 1.5 nmol/s/mg protein
Lolium multiflorum [24]
  Activity: 1.1 nmol/s/mg protein
Triticum aestivum [25]
  Activity: 6.8 nmol/s/mg protein
Lolium multiflorum [26]
  Activity: 4.64 micromol/m2/s
Triticum aestivum [27]
  Activity: 0.14 nmol/s
Lolium multiflorum [28]
  Activity: -1.36 micromol/m2/s
Lolium multiflorum [29]
  Activity: 4.2 nmol/s/mg protein
Triticum aestivum [30]
  Activity: 45%
Shoot [31]
  Drug uptake: 1.64 ppm
Shoot [32]
  Drug uptake: 0.2 ppm

Source: ChEMBL document CHEMBL3045349, “A comparative study on the interference of two herbicides in wheat and italian ryegrass and on their antioxidant activities and detoxification rates” (J Agric Food Chem, 2011)
